Publication PMC10692721, “Drug discovery for heart failure targeting myosin-binding protein C” (The Journal of Biological Chemistry, 2023)
Where a name gives a salt, the structure may show the parent alone. *1 amine or outer side, *2 acyl side, *3 side chain or, on linkers, in order; H or OH if unused. Where a SMILES comes first, the peptide text is derived from it. Bridges are numbered along the chain shown (N, C = ends). [ ]: non-standard residue; d: D form. The star is where a group is joined. pTerphenylCO(4''-OnC5H11) = CCCCCOc1ccc(-c2ccc(-c3ccc(C(=O)*)cc3)cc2)cc1; Orn(4R-OH,5R-OH) = O=C([C@H](C[C@@H](O)[C@@H](O)N[*:3])N[*:1])[*:2]; hTyr(3S-OH,4S-OH) = N[C@H](C(=O)O)[C@H](O)[C@@H](O)c1ccc(O)cc1; Pro(3S-OH,4S-Me) = C[C@H]1CN[C@H](C(=O)O)[C@H]1O; Hyp = O=C(O)[C@@H]1C[C@@H](O)CN1

Experiments:
[1] = system: TMR-cC0-C2 (C0-C2 fragment of human cMyBP-C); assay: FLT-TMR concentration-response assay (FLT of TMR on cC0-C2, no actin); type: binding; details: for cC0-C2/cC0-C2#P (ratio of FLT changes) / cC0-C2 FLT change (% change from DMSO, FLT of TMR-MyBP-C): 60 μM compound
Method: (§1) Compounds identified as initial hits were further examined to determine the concentration–response curves for seven conditions ([1]): FMAL-actin alone identified actin-binding compounds that alter the FLT of FMAL-actin ([2]).
(§2) Fluorescence lifetime (FLT) measurements were acquired using a high-throughput FLT plate reader (Fluorescence Innovations, Inc) ([14], [27]), provided by Photonic Pharma LLC. […] The observed waveforms were analyzed as described previously ([15], [28]).
(§3) The primary hits were dissolved in DMSO to make a 10 mM stock solution, which was serially diluted in 96-well mother plates. Hits were screened at eight concentrations (0.5–100 μM). […] Compounds (1 μl) were transferred from the mother plates into 384-well plates using a Mosquito HV liquid handler (TTP Labtech Ltd, Hertfordshire, UK). The same procedure of dispensing as for the pilot screening was applied in the concentration-response assays. Concentration dependence of the FLT-FRET (E/EDMSO) or FLT-TMR (Δτ) change data was fit to a Hill equation only under certain conditions to help guide the eye (Fig. 4).

[2] = system: PKA-phosphorylated TMR-cC0-C2 (cC0-C2#P); assay: FLT-TMR concentration-response assay, PKA-phosphorylated cC0-C2; type: binding, human; details: 60 μM compound
Method: as §1, §2, §3

[3] = system: TMR-fC1-C2 (C1-C2 of fast skeletal MyBP-C); assay: FLT-TMR concentration-response assay, fC1-C2; type: binding; details: 60 μM compound
Method: as §1, §2, §3

[4] = system: FMAL-actin plus TMR-cC0-C2; assay: Selleck library HTS, 473 nm excitation (FLT of FMAL-actin with TMR-cC0-C2, FLT-FRET); type: binding, human; details: for 473-nm Δτ, Repeat 1 / 473-nm Δτ, Repeat 2: initial screen, 30 μM compound; for 473-nm z-score (based on avg Δτ): robust z-score, hit threshold ±4, 30 μM compound
Method: as §2
(§4) In total, 50 nl of each solution was dispensed in DMSO using an automated Echo 550 acoustic liquid dispenser (Labcyte). Compounds were formatted into the assay plates, at a final concentration of 30 μM, with the first two and second to last columns loaded with DMSO only (compound-free controls). In the final column, 30 μM of suramin was loaded as a positive control (tool compound). These assay plates were then heat-sealed using a PlateLoc Thermal Microplate Sealer (Agilent Technologies) and stored at −20 °C. Before screening, compound plates were equilibrated to room temperature (∼25 °C). […] Plates were incubated at room temperature for 60 min before recording the data with the fluorescence lifetime plate reader.
After fitting the waveforms with a single exponential decay to quantify donor FLT, the change in FLT (Δτ) was computed by performing a moving median subtraction in the order the plate was scanned with a window size of half a plate row […]. The reasons for this are twofold. Firstly, plate gradients are often observed due to the heating of the digitizer during acquisition.
To account for the necessity to correct for plate gradients in the computation of E, the median τDMSO prior to the application of the moving median correction was added to each well’s Δτ value to recover a rescaled value of τ.

TMR-cC0-C2 = assay: Selleck library HTS, 532 nm excitation (FLT of TMR-cC0-C2 in presence of FMAL-actin); type: binding, human; details: for 532-nm Δτ, Repeat 1 / 532-nm Δτ, Repeat 2: initial screen, 30 μM compound; for 532-nm z-score (based on avg Δτ): robust z-score, hit threshold ±4, 30 μM compound
Method: as §2, §4
Hits that exceeded the z-score hit criteria in the donor-only screen were excluded from consideration. To remove compounds with confounding fluorescence properties, a similarity index (SI, specifically the cosine distance, Equation 5) was computed using data from the SUPR instrument by comparing a region (500–540 nm) of the donor-only spectrum (I^(a)) for each well to that of the plate-wide average DMSO spectrum (I^(b)) in the same wavelength band ([29]). Compounds that exceeded an SI robust z-score of 4 were deemed likely fluorescent compounds and removed from consideration.(5) SI=1−∑Ii(a).Ii(b)/∑Ii(a).Ii(a)∑Ii(b).Ii(b)

[5] = listed as Erlotinib HCl (OSI-744)

Structure (SMILES) | cC0-C2/cC0-C2#P (ratio of FLT changes) [1] | cC0-C2 FLT change (% change from DMSO, FLT of TMR-MyBP-C) [1] | cC0-C2#P FLT change (% change from DMSO, FLT of TMR-MyBP-C) [2] | cC0-C2/fC1-C2 (ratio of FLT changes) [3] | fC1-C2 FLT change (% change from DMSO, FLT of TMR-MyBP-C) [3] | 473-nm Δτ, Repeat 1 [4] | 473-nm Δτ, Repeat 2 [4] | 473-nm z-score (based on avg Δτ) [4] | 532-nm Δτ, Repeat 1 (TMR-cC0-C2) | 532-nm Δτ, Repeat 2 (TMR-cC0-C2) | 532-nm z-score (based on avg Δτ) (TMR-cC0-C2) | difference in effect on TMR FLT between unphosphorylated and phosphorylated TMR-cC0-C2 ([1]; from Table 3) | 473-nm Δτ, Repeat 1 [4, 5] | 473-nm Δτ, Repeat 2 [4, 5] | 473-nm z-score (based on avg Δτ) [4, 5] | 532-nm Δτ, Repeat 1 (TMR-cC0-C2; [5]) | 532-nm Δτ, Repeat 2 (TMR-cC0-C2; [5]) | 532-nm z-score (based on avg Δτ) (TMR-cC0-C2; [5])
COc1nc2ccc(Br)cc2cc1[C@@H](c1ccccc1)[C@@](O)(CCN(C)C)c1cccc2ccccc12.O=C(O)/C=C/C(=O)O [Bedaquiline fumarate] | 0.7 | −4.5% | −6.5% | 0.7 | 6.7% | -0.324 ns | -0.412 ns | -20.57 | -0.009 ns | -0.105 ns | -3.45 | – | – | – | – | – | – | –
CCCCCOc1ccc(-c2ccc(-c3ccc(C(=O)N[C@H]4C[C@@H](O)[C@@H](O)NC(=O)[C@@H]5[C@@H](O)[C@@H](C)CN5C(=O)[C@H]([C@@H](C)O)NC(=O)[C@H]([C@H](O)[C@@H](O)c5ccc(O)cc5)NC(=O)[C@@H]5C[C@@H](O)CN5C(=O)[C@H]([C@@H](C)O)NC4=O)cc3)cc2)cc1 [Anidulafungin] ({pTerphenylCO(4''-OnC5H11)}-[Orn(4R-OH,5R-OH)]T[Hyp][hTyr(3S-OH,4S-OH)]T[Pro(3S-OH,4S-Me)]; lactam 1-C) | 0.7 | 32.1% | 43.3% | 0.6 | 53.0% | 0.014 ns | 0.008 ns | 0.67 | 0.403 ns | 0.441 ns | 25.80 | – | – | – | – | – | – | –
Cc1cnc(C(=O)N[C@H]2CCCCC/C=C\[C@@H]3C[C@@]3(C(=O)NS(=O)(=O)C3CC3)NC(=O)[C@@H]3C[C@@H](Oc4nc5ccccc5c5ccccc45)CN3C2=O)cn1 [Paritaprevir (ABT-450), Paritaprevir] | 1.2 | 23.8% | 20.3% | 2.2 | 11.0% | 0.115 ns | 0.058 ns | 4.85 | 0.220 ns | 0.254 ns | 14.52 | – | – | – | – | – | – | –
CC1(C)CCC(C)(C)c2cc(NC(=O)c3ccc(C(=O)O)cc3)ccc21 [Tamibarotene] | 0.7 | 5.2% | 7.2% | 0.9 | 5.9% | 0.075 ns | 0.067 ns | 4.00 | 0.075 ns | 0.106 ns | 5.55 | – | – | – | – | – | – | –
C[C@@H]1O[C@@H](OC[C@H]2O[C@@H](Oc3c(-c4ccc(OCCO)c(OCCO)c4)oc4cc(OCCO)cc(O)c4c3=O)[C@H](O)[C@@H](O)[C@@H]2O)[C@H](O)[C@H](O)[C@H]1O [Troxerutin] | 0.8 | 6.1% | 7.3% | 1.0 | 6.0% | -0.024 ns | -0.024 ns | -1.32 | 0.074 ns | 0.088 ns | 4.99 | – | – | – | – | – | – | –
O=C(O)[C@H]1O[C@@H](Oc2cc3oc(-c4ccc(O)cc4)cc(=O)c3c(O)c2O)[C@H](O)[C@@H](O)[C@@H]1O [Scutellarin] | 1.0 | −9.1% | −8.7% | 1.0 | −9.5% | 0.142 ns | 0.076 ns | 6.15 | -0.111 ns | -0.145 ns | -7.79 | – | – | – | – | – | – | –
CCc1c(Cl)c(O)c(Cl)c(O)c1C(=O)O[C@H]1[C@H](O)[C@H](OC)[C@H](OC/C2=C\C=C\C[C@H](O)/C(C)=C/[C@H](CC)[C@@H](O[C@@H]3OC(C)(C)[C@@H](OC(=O)C(C)C)[C@H](O)[C@@H]3O)/C(C)=C/C(C)=C/C[C@@H]([C@@H](C)O)OC2=O)O[C@@H]1C [Fidaxomicin] | 10.4 | −5.2% | −0.5% | 1.2 | −4.3% | 0.057 ns | 0.084 ns | 3.98 | -0.001 ns | -0.028 ns | -0.86 | 10.4 fold | – | – | – | – | – | –
C#Cc1cccc(Nc2ncnc3cc(OCCOC)c(OCCOC)cc23)c1 [Erlotinib HCl] | 0.8 | 11.8% | 13.9% | 1.1 | 11.1% | – | – | – | – | – | – | – | -0.040 ns | -0.010 ns | -1.36 | 0.138 ns | 0.020 ns | 4.88
